Tests used:
[1] = test system: MCF7 (breast cancer) cells; test: MTT cytotoxicity assay in MCF7 breast cancer cells; assay type: cell-based; settings: 65 hours incubation, read-out: IC50, viability of MCF7 cells from the MTT assay
Method: The cyctoxicity of compounds was determined in MCF 7 (breast cancer) cells.
MCF7 cells were grown in RPMI 1640 media with 10 nM estrogen and 1 mM insulin. Cells were tyripsinized and resuspended at a density of 2.2×10^4 cells per mL. 500 μL of this suspension was added to each well in a 24 well plate. The plates were incubated at 37° C. and 5% CO2 atmosphere overnight. The media was changed, and plates were dosed in triplicate with compound dissolved in DMSO. Cells were dosed not to exceed 0.5% DMSO in solution. Cells were dosed to a final concentration of 100, 50, 25, 12.5, and 6.25 μM of compound. 5-Flurouracil was used as a positive control and dosed in the same manner. Plates were incubated for 65 hours prior to the addition of MTT solution. 500 μL of a 193 μg/mL MTT and media solution was added to each well. Plates were incubated for 3 hours. The MTT solution was removed and 500 μL of DMSO was added to each well. Cells were imaged using GS 800 Bio Rad scanner and Quality One Software. IC50 curves were determined by plotting viability verses compound concentration. Kaleidagraph software was used to calculate the R value for each logarithmic curve fitting.

Prostate PC-3 = test: NCI in vitro cell line screen (SRB), single dose; assay type: cell-based, human; settings: Prostate PC-3, single dose of 10 μM
Method: (§1) Four of the preliminary lead compounds: three nucleosides (JT-1-10, VAL-1-15/42, VAL-1-16) and one nucleobase (KB-1-17)—were submitted to the National Cancer Institute for the in vitro cell line screening project (IVCLSP). The screening consisted in the evaluation of this compound against the 60 cell lines at a single dose of 10 μM.
(§2) The human tumor cell lines of the cancer screening panel are grown in RPMI 1640 medium containing 5% fetal bovine serum and 2 mM L-glutamine. For a typical screening experiment, cells are inoculated into 96 well microtiter plates in 100 μL at plating densities ranging from 5,000 to 40,000 cells/well depending on the doubling time of individual cell lines. After cell inoculation, the microtiter plates are incubated at 37° C., 5% CO2, 95% air and 100% relative humidity for 24 h prior to addition of experimental drugs.
(§3) After 24 h, two plates of each cell line are fixed in situ with TCA, to represent a measurement of the cell population for each cell line at the time of drug addition (Tz). Experimental drugs are solubilized in dimethyl sulfoxide at 400-fold the desired final maximum test concentration and stored frozen prior to use. At the time of drug addition, an aliquot of frozen concentrate is thawed and diluted to twice the desired final maximum test concentration with complete medium containing 50 μg/ml gentamicin. Additional four, 10-fold or ½ log serial dilutions are made to provide a total of five drug concentrations plus control. Aliquots of 100 μl of these different drug dilutions are added to the appropriate microtiter wells already containing 100 μl of medium, resulting in the required final drug concentrations.
(§4) Following drug addition, the plates are incubated for an additional 48 h at 37° C., 5% CO2, 95% air, and 100% relative humidity. For adherent cells, the assay is terminated by the addition of cold TCA. Cells are fixed in situ by the gentle addition of 50 μl of cold 50% (w/v) TCA (final concentration, 10% TCA) and incubated for 60 minutes at 4° C. The supernatant is discarded, and the plates are washed five times with tap water and air dried. Sulforhodamine B (SRB) solution (100 μl) at 0.4% (w/v) in 1% acetic acid is added to each well, and plates are incubated for 10 minutes at room temperature. After staining, unbound dye is removed by washing five times with 1% acetic acid and the plates are air dried. Bound stain is subsequently solubilized with 10 mM trizma base, and the absorbance is read on an automated plate reader at a wavelength of 515 nm. For suspension cells, the methodology is the same except that the assay is terminated by fixing settled cells at the bottom of the wells by gently adding 50 μl of 80% TCA (final concentration, 16% TCA). Using the seven absorbance measurements [time zero, (Tz), control growth, (C), and test growth in the presence of drug at the five concentration levels (Ti)], the percentage growth is calculated at each of the drug concentrations levels. Percentage growth inhibition is calculated as:
(§5) [(Ti−Tz)/(C−Tz)]×100 for concentrations for which Ti>/=Tz
(§6) [(Ti−Tz)/Tz]×100 for concentrations for which Ti<Tz.
(§7) Three dose response parameters are calculated for each experimental agent. Growth inhibition of 50% (GI50) is calculated from [(Ti−Tz)/(C−Tz)]×100=50, which is the drug concentration resulting in a 50% reduction in the net protein increase (as measured by SRB staining) in control cells during the drug incubation. The drug concentration resulting in total growth inhibition (TGI) is calculated from Ti=Tz. The LC50 (concentration of drug resulting in a 50% reduction in the measured protein at the end of the drug treatment as compared to that at the beginning) indicating a net loss of cells following treatment is calculated from [(Ti−Tz)/Tz]×100=−50. […]

CNS SNB-75 = test: NCI in vitro cell line screen (SRB), single dose; assay type: cell-based, human; settings: CNS SNB-75, single dose of 10 μM
Method: as §1, §2, §3, §4, §5, §6, §7

Renal CAKI-1 = test: NCI in vitro cell line screen (SRB), single dose; assay type: cell-based, human; settings: Renal CAKI-1, single dose of 10 μM
Method: as §1, §2, §3, §4, §5, §6, §7

[2] = test system: Non-Small Cell Lung HOP-92; test: NCI in vitro cell line screen (SRB), single dose; assay type: cell-based, human; settings: Non-Small Cell Lung HOP-92, single dose of 10 μM
Method: as §1, §2, §3, §4, §5, §6, §7

Melanoma UACC-62 = test: NCI in vitro cell line screen (SRB), single dose; assay type: cell-based, human; settings: Melanoma UACC-62, single dose of 10 μM
Method: as §1, §2, §3, §4, §5, §6, §7

Renal A498 = test: NCI in vitro cell line screen (SRB), single dose; assay type: cell-based, human; settings: Renal A498, single dose of 10 μM
Method: as §1, §2, §3, §4, §5, §6, §7

Breast MSF7 = test: NCI in vitro cell line screen (SRB), single dose; assay type: cell-based, human; settings: Breast MSF7, single dose of 10 μM
Method: as §1, §2, §3, §4, §5, §6, §7

Renal UO-31 = test: NCI in vitro cell line screen (SRB), single dose; assay type: cell-based, human; settings: Renal UO-31, single dose of 10 μM
Method: as §1, §2, §3, §4, §5, §6, §7

[3] = test system: Non-Small Cell Lung NCI-H522; test: NCI in vitro cell line screen (SRB), single dose; assay type: cell-based, human; settings: Non-Small Cell Lung NCI-H522, single dose of 10 μM
Method: as §1, §2, §3, §4, §5, §6, §7

Renal TK-10 = test: NCI in vitro cell line screen (SRB), single dose; assay type: cell-based, human; settings: Renal TK-10, single dose of 10 μM
Method: as §1, §2, §3, §4, §5, §6, §7

Leukemia RPMI-8226 = test: NCI in vitro cell line screen (SRB), single dose; assay type: cell-based, human; settings: Leukemia RPMI-8226, single dose of 10 μM
Method: as §1, §2, §3, §4, §5, §6, §7

CNS SF-268 = test: NCI in vitro cell line screen (SRB), single dose; assay type: cell-based, human; settings: CNS SF-268, single dose of 10 μM
Method: as §1, §2, §3, §4, §5, §6, §7

γ-H2AX = test: Western blot of drug-treated MCF7 cells detecting double-strand break marker γ-H2AX; assay type: cell-based; settings: 4.5 μM, 16 hours, nuclear extract, two trials (FIG. 3)
Method: Vehicle controls were simultaneously prepared by treatment with DMSO.
Nuclear proteins from both the drug-treated and control samples were conducted using NE-PER Nuclear and Cytoplasmic Extraction Kit (Thermo Scientific) using the manufacturer's protocol. In detail, cells were harvested by trypsin-EDTA and centrifuged at 500×g for 5 minutes. The cells were washed to remove traces of trypsin by suspending in 1×PBS, followed by centrifugation at 500×g for 2-3 minutes. The supernatant was removed leaving the cell pellet as dry as possible. A 200 μL volume of ice-cold cytoplasmic extraction reagent I (CER-I), treated Halt™ Protease & Phosphatase Inhibitor Cocktail (Thermo Scientific), was added to the pellet. The cell pellet was suspended by vortexing vigorously for 15 seconds and then incubated on ice for 10 minutes. The mixture is then treated with 11 μL of ice-cold cytoplasmic extraction reagent II (CER-II) and mixed by vortexing on the highest setting for 5 seconds followed by incubation on ice of one minute to allow complete release of cytoplasmic contents. […]
Protein concentration in each sample and control was determined by Bradford Assay using Coomassie Plus™ (Bradford) Assay Kit (Thermo Scientific), applying the manufacturer's instruction. […] The absorbance is then measured at 595 nm using a Synergy 4 plate reader (Biotek). […]

SMILES | IC50 [1] [µM] | Growth Percent (Prostate PC-3) [%] | Growth Percent (CNS SNB-75) [%] | Growth Percent [2] [%] | other results
CC(C)(C)C(OCc1cn([C@H]2C[C@H](O)[C@@H](CO)O2)c(=O)[nH]c1=O)c1ccccc1[N+](=O)[O-] (stereo partly shown) [VAL-1-15/27/42, 5-[1-(2-nitrophenyl)-2,2-(dimethyl)propoxymethyl]-2′-deoxyuridine] | 42 | 91 | 84 | 73 | Growth Percent (Renal CAKI-1): 88%
CC(C)(C)CC(OCc1cn([C@H]2C[C@H](O)[C@@H](CO)O2)c(=O)[nH]c1=O)c1ccccc1 (stereo partly shown) [VAL-1-16, 5-[1-(phenyl)-3,3-(dimethyl)-1-butoxymethyl]-2′-deoxyuridine] |  |  | 92 |  | Growth Percent (Melanoma UACC-62): 90%; Growth Percent (Renal A498): 92%
CC(C)(C)C(OCc1cn([C@H]2C[C@H](O)[C@@H](CO)O2)c(=O)[nH]c1=O)c1ccccc1 (stereo partly shown) [JT-1-10, 5-[1-(phenyl)-2,2-(dimethyl)-1-propoxymethyl]-2′-deoxyuridine] | 188 |  | 65 | 89 | Growth Percent (Breast MSF7): 87%; Growth Percent (Renal UO-31): 88%; Growth Percent [3]: 91%; Growth Percent (Renal TK-10): 84%; Growth Percent (Leukemia RPMI-8226): 90%
CC(C)(C)C(OCc1c[nH]c(=O)[nH]c1=O)c1ccccc1[N+](=O)[O-] (stereo not shown) [KB-1-17, 5-[1-(2-nitrophenyl)-2,2-(dimethyl)propoxymethyl]uracil] | 81 | 93 |  | 68 | Growth Percent (CNS SF-268): 91%
CC(C)(C)C(OCc1cn([C@H]2C[C@H](O)[C@@H](CO)O2)c(=O)[nH]c1=O)c1ccc(C#Cc2ccccc2)cc1[N+](=O)[O-] (stereo partly shown) [VAL-1-36/38, 5-[1-(4-{2-phenylacetylenyl}-2-nitrophenyl)-2,2-(dimethyl)-1-propoxymethyl]-2′-deoxyuridine] | 9 ± 1 |  |  |  | double-strand break marker γ-H2AX (DNA damage response) (γ-H2AX): causes a DNA damage response
